Our source for the Activity, bioavailability and IC50 values is ChEMBL document CHEMBL6134843, “HDAC11 Inhibition as a Potential Therapeutic Strategy for AML: Target Identification, Lead Discovery, Antitumor Potency, and Mechanism Investigation” (J Med Chem, 2025).

The nature of data set [1]: Antitumor activity against mouse MLL-AF9 cells allografted in female C57BL/6 mouse model assessed as GFP positive leukemic cells in peripheral blood at 50 mg/kg, ip administered once daily for 26 days in presence of cytarabine by FITC staining based analysis (reference value: 30.6 %). It counts as functional. Particulars: time 26 day.
The test system of data set [2] is U-937. Description: Effect on MOAP1 gene expression in human U-937 cells at 10 uM incubated for 48 hrs by RT-qPCR. It counts as functional, cell-based.
The subject of data set [3] is Acute myeloid leukemic cell. Description: Induction of ferroptosis in human Acute myeloid leukemic cells assessed as upregulation of HMOX1 mRNA level by RT-qPCR analysis. It counts as functional, cell-based. (In general: Quantitative PCR measures a nucleic acid by following its amplification.)
Data set [4] in a line: Bioavailability in ICR(CD-1) mouse at 50 mg/kg, ip treated up to 24 hrs by LC-MS/MS analysis. It counts as ADME, organism-based. The note with it: in vivo.
Data set [5] deals with U-937. Description: Induction of ferroptosis in human U-937 cells assessed as increase in ferrous ion accumulation at 5 uM incubated for 48 hrs by RhoNox-1 staining based flow cytometry analysis. It counts as functional, cell-based. (Flow cytometry measures light scatter and fluorescence of single cells or particles in a stream.)
Data set [6] concerns U-937. Description: Induction of cell apoptosis in human U-937 cells incubated for 48 hrs by Annexin V/DAPI staining based flow cytometry analysis. It counts as functional. Particulars: dose 2.5-10 µM.
In data set [7] the test system is U-937. Briefly: Induction of ferroptosis in human U-937 cells assessed as increase in lipid peroxidation level incubated for 48 hrs by C11-BODIPY 581/591 staining based flow cytometry analysis. It counts as functional, cell-based. The note with it: dose 2.5-10 µM.
Data set [8] is described as follows: Induction of cell apoptosis in human OCI-AML-3 cells at 5 uM incubated for 48 hrs by Annexin V/DAPI staining based flow cytometry analysis relative to control. It counts as functional.
Data set [9] relates to U-937. Description: Upregulation of p62 mRNA level in human U-937 cells by qRT-PCR analysis. It is filed as functional, cell-based.
Data set [10] deals with U-937. Description: Effect on CDK6 gene expression in human U-937 cells at 10 uM incubated for 48 hrs by RT-qPCR. It is filed as functional, cell-based.
Data set [11] has as its system U-937. Description: Induction of cell cycle arrest in human U-937 cells assessed as accumulation of cells at G1 phase at 5 uM incubated for 48 hrs by EdU/DAPI staining based flow cytometry analysis. It counts as functional.
Data set [12] is described as follows: Induction of cell apoptosis in human THP-1 cells at 5 uM incubated for 48 hrs by Annexin V/DAPI staining based flow cytometry analysis relative to control. It is filed as functional.
Data set [13] concerns Acute myeloid leukemic cell. Briefly: Induction of ferroptosis in human Acute myeloid leukemic cells assessed as upregulation of HMOX1 protein level at 2.5 to 10 uM by Western blot analysis. It is filed as functional, cell-based. The note with it: dose 2.5-10 µM.
The subject of a further data set is THP-1. Briefly: Antiproliferative activity against human THP-1 cells assessed as cell growth inhibition incubated for 2 days by CCK-8 assay. Particulars: THP-1, 48 h. In general terms: Formazan colour is commonly taken as a measure of viable cells.
In data set [14] the test system is U-937. Briefly: Effect on MYC gene expression in human U-937 cells at 10 uM incubated for 48 hrs by RT-qPCR. It counts as functional, cell-based.
The subject of data set [15] is U-937. Description: Induction of ferroptosis in human U-937 cells assessed as upregulation of HMOX1 level at 10 uM in presence of Zinc protoporphyrin by flow cytometry analysis. It counts as functional, cell-based.
The subject of data set [16] is U-937. Description: Induction of ferroptosis in human U-937 cells assessed as increase in malondialdehyde level at 5 uM incubated for 48 hrs. It is filed as functional, cell-based.
The subject of data set [17] is Acute myeloid leukemic cell. Briefly: Induction of ferroptosis in human Acute myeloid leukemic cells assessed as […] of ACSL4 mRNA level by RT-qPCR analysis. It counts as functional, cell-based.
Data set [18] has as its system U-937. Description: Upregulation of Nrf2 protein level in human U-937 cells at 2.5 to 10 uM incubated for 48 hrs by Western blot analysis. It counts as functional, cell-based. The note with it: dose 2.5-10 µM.

Active and inactive are the calls of the source. No cut-off for these calls is given here.

In general, bioavailability refers to the share of a dose that reaches the circulation, judged against a reference dose that is usually intravenous. The IC50 is the concentration at which inhibition is half-maximal. In the case of `O=C(NO)c1cccc2[nH]c(C#Cc3cccc(C(F)(F)F)c3)cc12`, the Activity in [1] is 1.74%; in the data set with U-937 [6] it was “Dose-dependent-effect”; with U-937 [7] it was “Dose-dependent-effect”; in data set [8] it was around 20%; with U-937 [11], “Dose-dependent-effect”; in data set [12], around 20%. In addition, in the data set with U-937 [15], the Activity result is “Active; Partially Reversed Zinc Protoporphyrin Inhibition”. Further, the outcome (with U-937 [2]; in [3]; in the data set on U-937 [5]; in the data set with U-937 [9]; in the data set on U-937 [10]; in [13]) was Active. Also, the outcome (in the data set on U-937 [14]; in the data set on U-937 [16]; in data set [17]; in the data set with U-937 [18]) was Active. The bioavailability in data set [4] was found to be 32%. In addition, in the data set on THP-1, the IC50 is at most 10 µM.
